Patent US8765684B2, “Solid materials of {[(2S,5R,8S,11S)-5-benzyl-11-(3-guanidino-propyl)-8-isopropyl-7-methyl-3,6,9,12,15-pentaoxo-1,4,7,10,13-pentaaza-cyclopentadec-2-yl]-acetic acid} and methods for obtaining them” (Merck Patent GmbH, priority 2009, dated 2014)
Values after ≈ are worked out from the molar mass of the structure shown. Values belong to the molecule of their own block, whether it stands above or below them.

Key:
[1] = Solid-state properties (hygroscopicity, stability, dissolution) stated in comparison with amorphous material and salts; format: physicochemical; conditions: solid material; for Hygroscopicity: comparison crystalline forms vs amorphous material
[2] = Solubility of tetrahydrate Form S3 in different solvents; format: physicochemical
[3] = format: physicochemical
Excerpt: Preferably, the anhydrates or ansolvates according to the invention and especially the crystalline form A1 can be characterised, alternatively or additionally, by dynamic vapour sorption experiments. The results can be obtained by standard techniques as described in Rolf Hilfiker, ‘Polymorphism in the Pharmaceutical Industry’, Wiley-VCH. Weinheim 2006 (Chapter 9: Water Vapour Sorption, and references therein). […] Eur. criteria.
Preferably, the tetrasolvates according to the invention, more preferably the tetrahydrates according to the invention and especially the crystalline form S3 can be characterised, alternatively or additionally, by dynamic vapour sorption experiments. The results can be obtained by standard techniques as described in Rolf Hilfiker, ‘Polymorphism in the Pharmaceutical Industry’, Wiley-VCH. Weinheim 2006 (Chapter 9: Water Vapour Sorption, and references therein).
Dynamic Vapor Sorption measurements are preferably obtained on a SMS DVS Intrinsic system. The results are preferably obtained by standard techniques as described by Rolf Hilfiker “Polymorphism in the Pharmaceutical Industry” Wiley-VCH Weinheim 2006 (Chapter 9: Water Vapour Sorption, and references therein.) Approx. 2-10 mg of samples are preferably weighed into an Aluminium 100 μL pan and placed in the sample incubator of the DVS instrument with microbalance. A nitrogen overall flow rate of 200 mL/min (combined dry and humid stream) is preferably used for humidification. Water vapor sorption isotherms are preferably acquired at 25° C. in the range 0% relative humidity to 98% relative humidity mostly with 10% relative humidity steps. For all relative humidity steps, an equilibrium condition of dm/dt≦0.0005 wt %/min are preferably used, with a minimum relative humidity step time of 10 minutes and a maximum relative humidity step time of 360 minutes which is preferably used as a timeout if the dm/dt criterai mentioned above is not been reached.
A SMS DVS I system is used for the dynamic vapour experiments regarding crystalline form S3. The results have been obtained by standard techniques as described in Rolf Hilfiker, ‘Polymorphism in the Pharmaceutical Industry’, Wiley-VCH. Weinheim 2006 (Chapter 9: Water Vapour Sorption, and references therein). […] During the water adsorption cycle there is shown an assembly of water molecules (ca. 10 wt%) in the lattice at elevated rh. In the second desorption cycle there is a loss of this amount of water.
(§1) A SMS DVS Intrinsic is used for the dynamic vapour experiments. The results are obtained by standard techniques as described in Rolf Hilfiker, ‘Polymorphism in the Pharmaceutical Industry’, Wiley-VCH. Weinheim 2006 (Chapter 9: Water Vapour Sorption, and references therein). […] Upon water vapour adsorption, an assembly of water molecules in the lattice is observed, with a maximum weight gain of approx. 8 wt % at elevated rh. In the second desorption cycle a total mass loss of approx. 9.9 wt % is observed. For a Cilengitide Dihydrate Di-Methanolate, the calculated Methanol content equals 9.3 wt %.
as §1, with “6.4” for “8”, “9.2” for “9.9”, “Di-Ethanolate,” for “Di-Methanolate,”, “Ethanol” for “Methanol”, “12.5” for “9.3”

[4] = Competitive slurry conversion of pseudopolymorphic form and form A1 (1:1) in Water/Methanol and Water/Ethanol mixtures; format: physicochemical; conditions: for Methanol in the mixture with Water leading to form S1: 1:1 pseudopolymorphic form + A1
Description: b) Additionally, crystalline tetrasolvates according invention and especially crystalline forms S1 and S2 can be manufactured by competitive slurry conversion experiments with a mixture of a pseudopolymorphic form (for example S1, S2, S3 or mixtures of these) with form A1 (1:1) in Water/Methanol and Water/Ethanol mixtures with different alcohol contents at different temperatures, respectively.
(§2) Approx. 20 mg of a pseudopolymorphic form (for example S1, S2, S3 or mixtures of these) and 20 mg of form A1 of Cilengitide are dispersed in 300 μl Water/alcohol mixture at 0° C. or room temperature (25° C.). The dispersion is stirred for 24 h and additionally for 3 weeks at RT (25° C.) (long-term experiment) by a magnetic stirrer and finally filtered
Approx. 20 mg of a pseudopolymorphic form (for example S1, S2, S3 or mixtures of these) and 20 mg of form A1 of Cilengitide are dispersed in 300 μl Water/alcohol mixture at 50° C. The dispersion is stirred for 24 h by a magnetic stirrer and finally filtered.
Additionally form A1 can be manufactured by competitive slurry conversion experiments with a mixture of a pseudopolymorphic form (for example S1, S2, S3 or mixtures of these) and form A1 (1:1) in Water/Methanol and Water/Ethanol mixtures with different alcohol contents at different temperatures. In the following table the conditions for the experiments leading to the pure form A1 are listed.
as §2, with “C.,” for “C. or”, “and 50° C.” for “(25° C.).”, “filtered.” for “filtered”

[5] = Slurry conversion and competitive slurry conversion in water, saline, buffer and other solvents; format: physicochemical; conditions: in the presence of aqueous based solvents (suspensions, wetted material), absence of methanol and/or ethanol
Description: a) Crystalline tetrasolvates according to the invention and especially crystalline forms S1 and S2, can be obtained by slurry conversion from form A1 in a Methanol/Water mixture (70 v %:30 v %) at 25° C. for 2 days stirring time and Ethanol/Water mixture (60 v %:40 v %) at 25° C. for 18 days stirring time, respectively. General procedure:
Approx. 500 mg of form A1 of Cilengitide are dispersed in 5 ml solvent at room temperature. The dispersion is stirred for the mentioned time by a magnetic stirrer and finally filtered.
Form A1 of Cilengitide can be obtained by slurry conversion from pseudopolymorphic forms (for example S1, S2, S3 or mixtures of these) in Water at 25° C. An increased temperature (50° C.) accelerates the conversion to form A1.
Approx. 10 g of a pseudopolymorphic form (for example S1, S2, S3 or mixtures of these) of Cilengitide are dispersed in 50 ml deionised water at room temperature. The dispersion is stirred for 24 h by a magnetic stirrer and finally filtered.
Also the pure form form A1 can be manufactured by competitive slurry conversion experiments with a mixture of a pseudopolymorphic form (for example S1, S2, S3 or mixtures of these) and A1 (1:1) in Acetone, Acetonitrile, Isopropanol, physiological NaCl solution, Phosphate buffer (pH 7.4) and 1:1 (v:v) mixtures of Acetone, Acetonitrile, Isopropanol with Water at RT (25° C.).
Approx. […]

[6] = Conditioning of amorphous Cilengitide under methanol atmosphere; format: physicochemical; conditions: MeOH liquid phase 100 v %
Excerpt: As still another example, conditioning of amorphous material of the compound according to formula I or hydrate forms under methanol atmosphere yielded crystalline solvates with 2 molecules methanol per molecule of the compound according to formula I.
Conditioning of amorphous Cilengitide (abbreviated: Cil; Cilengitide=Cyclo-(Arg-Gly-Asp-DPhe-NMeVal) under methanol atmosphere yielded a solvate with 2 molecules methanol per molecule Cilengitide.

[7] = Methanol vapour sorption (DVS, hydrate form to form S1); format: physicochemical
Description: In the respective dynamic vapor sorption experiments discussed in more detail herein using methanol vapor at 98% relative saturation for the Dihydrate-dimethanolate/crystalline form S1 at 25° C. starting with the tetrahydrate a mass gain of 9% has been obtained. This is in good agreement with the above shown results for the tetramethanolate (calculated 108.5%, i.e. 8.5% of mass gain).
Preferably, the tetrasolvates according to the invention, more preferably the Dihydrate-dimethanolate, the Dihydrate-methanolate, the Dihydrate-monoethanolate, the Dimethanolate and/or the desolvates thereof, and especially the crystalline form S1 can be characterised, alternatively or additionally, by dynamic vapour experiments using water vapour and/or methanol vapour. The results can be obtained by standard techniques as described in Rolf Hilfiker, ‘Polymorphism in the Pharmaceutical Industry’, Wiley-VCH. Weinheim 2006 (Chapter 9: Water Vapour Sorption, and references therein).
Upon water vapour adsorption, an assembly of water molecules in the lattice is observed, with a maximum weight gain of approx. 8 wt % at elevated rh. In the second desorption cycle a total mass loss of approx. 9.9 wt % is observed. For a Dihydrate Di-Methanolate of the compound of formula I, the calculated Methanol content equals 9.3 wt %. […] Methanol Vapour Sorption Isotherm (25° C.) of a hydrate form to form S1 (SMS DVS Advantage) FIG. 14.
Thus, crystalline form S1 is a crystalline Methanol solvate form or a mixed water/methanol solvate form, preferably selected from the Dihydrate-methanolate, the Dihydrate-monoethanolate, the Dimethanolate and/or the desolvates thereof, which can be obtained e.g. via Methanol Vapour Sorption, preferably via Methanol Vapour Sorption starting with a hydrate structure, such as the hydrates according to the invention and especially the tetrahydrate according to the invention, i.e crystalline form S3. […]

[8] = 50° C. for 1 day, table of b579
[9] = 50° C. for 1 day, table of b595
[10] = water vapour sorption, 25° C., listed as S1

- Hygroscopicity ([1]; listed as amorphous forms): unfavourably hygroscopic
- Hygroscopicity ([1]; listed as amorphous solid material): very high hygroscopicity
- Physical and/or chemical (solid state) stability ([1]; comparison crystalline forms vs amorphous phase): low stability
Molecule: CC(C)[C@H]1C(=O)N[C@@H](CCCNC(=N)N)C(=O)NCC(=O)N[C@@H](CC(=O)O)C(=O)N[C@H](Cc2ccccc2)C(=O)N1C [amorphous material, cyclo-(Arg-Gly-Asp-DPhe-NMe-Val)]

- solubility ([2]; solvent H2O): 21.6 mg/mL (≈ 36.7 mM)
- solubility ([2]; solvent H2O/Acetone (1:1)): 22.7 mg/mL (≈ 38.6 mM)
- solubility ([2]; solvent H2O/Acetonitrile (1:1)): 24.3 mg/mL (≈ 41.3 mM)
- solubility ([2]; solvent H2O/EtOH (1:1)): 13 mg/mL (≈ 22.1 mM)
- solubility ([2]; solvent H2O/MeOH (1:1)): 12.8 mg/mL (≈ 21.7 mM)
- solubility ([2]; solvent H2O/iPrOH (1:1)): 22.9 mg/mL (≈ 38.9 mM)
- solubility ([2]; solvent buffer pH 7.4): 24.4 mg/mL (≈ 41.4 mM)
- solubility ([2]; solvent physiological NaCl solution): 21.1 mg/mL (≈ 35.8 mM)
Molecule: CC(C)[C@H]1C(=O)N[C@@H](CCCN=C(N)N)C(=O)NCC(=O)N[C@@H](CC(=O)O)C(=O)N[C@H](Cc2ccccc2)C(=O)N1C [crystalline form S3, cyclo-(Arg-Gly-Asp-DPhe-NMe-Val)]

- Hygroscopicity classification ([3]; acc. to Ph. Eur. criteria, water vapour sorption 25° C.): non-hygroscopic
- Water uptake levels ([3]; up to 98% relative humidity, 25° C.): small
- Ethanol in the mixture with Water leading to pure form A1 ([4]; 0° C. for 1 day): 0-10 v %
- Methanol in the mixture with Water leading to pure form A1 ([4]; 0° C. for 1 day): 0 v %
- Ethanol in the mixture with Water leading to form A1 (no pseudopolymorphic form obtained) [4, 8]: 90-100 v %
- Methanol in the mixture with Water leading to form A1 (no pseudopolymorphic form obtained) [4, 8]: 90-100 v %
- Ethanol in the mixture with Water leading to pure form A1 [4, 9]: 0-80 v %
- Methanol in the mixture with Water leading to pure form A1 [4, 9]: 0-70 v %
- Ethanol in the mixture with Water leading to pure form A1 ([4]; RT for 3 weeks): 0-20 v %
- Methanol in the mixture with Water leading to pure form A1 ([4]; RT for 3 weeks): 0-40 v %
- Ethanol in the mixture with Water leading to pure form A1 ([4]; RT for 1 day): 0-30 v %
- Methanol in the mixture with Water leading to pure form A1 ([4]; RT for 1 day): 0-50 v %
- Thermodynamic stability of the form [5]: thermodynamically stable form
Molecule: cyclo-(Arg-Gly-Asp-DPhe-NMe-Val) [crystalline form A1]
- Physical stability of the crystal form versus relative humidity [3]: physical stability of the crystal form throughout the entire relative humidity range (0-98%)
- Formation or conversion to a hydrate ([3]; water vapour sorption up to 98% relative humidity): No formation or conversion to a hydrate is observed

- H2O KF [6]: 0.3 wt %
- MeOH HS-GC [6]: 10.0 wt %
- Σ TG [6]: 10.4 wt %
- H2O KF ([6]; per 1 mol Cil): 0.1 mol
- MeOH HS-GC ([6]; per 1 mol Cil): 2.1 mol
- Maximum weight gain upon water vapour adsorption ([3]; elevated rh, 25° C., listed as S1): approx. 8 wt %
- Mass loss in the first desorption cycle [3, 10]: approx. 8 wt %
- Total mass loss in the second desorption cycle [3, 10]: approx. 9.9 wt %
- Methanol in the mixture with Water leading to form S1 ([4]; 0° C. for 1 day): 40-100 v %
- Methanol in the mixture with Water leading to form S1 ([4]; RT for 3 weeks): 60-100 v %
- Methanol in the mixture with Water leading to form S1 ([4]; RT for 1 day): 60-100 v %
- Thermodynamic stability of the form ([7]; atmosphere of 100% Methanol vapour): thermodynamically stable form
- Methanol taken up by the sample ([7]; elevated Methanol partial pressure, starting with a hydrate structure): approx. 9 wt %
- Mass gain ([7]; methanol vapor at 98% relative saturation, 25° C., starting with the tetrahydrate): 9%
Molecule: cyclo-(Arg-Gly-Asp-DPhe-NMe-Val) [crystalline form S1]
